Entries after “also recorded” stand apart in the source; their conditions may differ.
How the values were obtained:
pro-MMP-9 = pro-MMP-9 (Homo sapiens, UniProt P14780); assay: anti-activation (splicing) assay: conversion of pro-MMP-9 by stromilysin, HPLC; format: biochemical; details: pro-MMP-9 with stromilysin, micromolar 19-mer
Experimental: The assay measured how much proenzyme was converted into mature matrix metalloproteinase. Proenzyme pro-MMP-9 (100 μg) was mixed with 0.5 μg of stromilysin in PBS. The reaction was incubated at 35° C. Aliquots were removed from the reaction over an 80-minute time course. […] The zero (injection) time point was a single peak that eluted from the column in approximately 750 seconds. This peak reduced in size as a function of time, and two new peaks appeared. The first peak eluted at approximately 800 seconds, and represents the mature form of MMP-9. The second peak eluted at approximately 1100 seconds, and corresponds to the N-terminal pro-domain fragment. Peak areas were determined by integrating over the elution profile, and the percent area changes were plotted.
The first peak, eluting at approximately 700 seconds, is pro-MMP-9. As the splicing reaction proceeds, this peak decreases in intensity (as marked with the downwards arrow), and two new peaks appear. The first new peak, eluting at approximately 800 seconds, is mature and active MMP-9. The second new peak, eluting at approximately 1050 seconds, is the prodomain. As the splicing reaction proceeds, the intensity of these two peaks increases (as marked with the upwards arrows). When the reaction is complete, there is no detectable pro-MMP-9 remaining.

MMP-9 = biological target: T1, MMP-9 (Homo sapiens, UniProt P14780); assay: isothermal titration calorimetry with MMP-9; format: binding; details: ITC, 20 mM NaCl
T1 construct: Active MMP-9 enzyme was purchased from Calbiochem; purchased Calbiochem
Experimental: Isothermal titration calorimetry (ITC) was performed with a VP-ITC instrument from MicroCal, Inc. Titrations were carried out by injecting 5 μL of an inhibitor peptide solution (at concentration ranges from 0.5 mM to 2.0 mM) into the 1.4 mL stirred reaction cell. MMP-9 ranged in concentration from 50 to 80 μM in the cell. Both the inhibitor and the enzyme were in 20 mM sodium cacodylate (pH 5.5–7.0), 40 mM NaCl, or 20 mM Tris-HCl (pH 7.0–7.5), 40 mM NaCl. Titrations were conducted between 20° C. and 40° C. Typical experimental conditions for the titrations were a 10 second injection period followed by a 240 second delay between injections for a total of 40 injections. Blank titrations of inhibitor peptide into buffer were performed in order to correct for heats of dilution and mixing.
The independent set of multiple binding sites is the most common model for binding experiment evaluations. The analytical solution for the total heat is determined by (Freire et al., 1990):
[formula] where Q is the total heat, V is the cell volume, ΔH is the enthalpy, M is the macromolecule concentration (the binding partner in the cell), n is the binding stoichiometry, L is the ligand concentration (the binding partner in the syringe), and K is the association constant. Data were fit to this model using Origin version 5 (MicroCal, Inc.). Surface Plasmon Resonance
The peptide was dissolved in 20 mM cacodylate (pH 6.8), 20 mM NaCl at a final concentration of 1 mM. MMP-9 was dialyzed into the same buffer at a final concentration of 20 μM. A series of standard injections were performed as described above.

MMP-2 = biological target: T2, MMP-2 (Homo sapiens, UniProt P08253); assay: isothermal titration calorimetry with MMP-2; format: binding; details: ITC, 10 mM NaCl at 25° C.
T2 sequence (P08253 110-660): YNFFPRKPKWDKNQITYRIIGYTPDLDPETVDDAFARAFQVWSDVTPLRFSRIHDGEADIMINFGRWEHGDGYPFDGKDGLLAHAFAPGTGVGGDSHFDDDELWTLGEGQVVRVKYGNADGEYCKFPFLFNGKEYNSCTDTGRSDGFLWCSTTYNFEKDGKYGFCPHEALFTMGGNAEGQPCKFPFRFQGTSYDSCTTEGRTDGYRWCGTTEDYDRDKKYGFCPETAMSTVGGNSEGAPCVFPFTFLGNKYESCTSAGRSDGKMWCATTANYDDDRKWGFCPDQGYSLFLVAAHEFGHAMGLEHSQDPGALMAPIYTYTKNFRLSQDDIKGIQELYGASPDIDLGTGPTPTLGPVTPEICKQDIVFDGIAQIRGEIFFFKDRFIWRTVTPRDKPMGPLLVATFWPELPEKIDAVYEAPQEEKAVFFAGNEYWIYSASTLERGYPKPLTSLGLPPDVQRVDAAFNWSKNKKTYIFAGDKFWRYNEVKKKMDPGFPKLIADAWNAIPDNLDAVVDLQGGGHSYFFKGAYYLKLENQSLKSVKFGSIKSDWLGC

[1] = system: fibronectin in human skin fibroblast cell line; assay: fibronectin in human skin fibroblasts, EIA; format: cell-based; details: for Mean (fibronectin EIA, absorbance at 450 nm) / Median (fibronectin EIA, absorbance at 450 nm): 48 hours, n=2
Experimental: The fibroblast cells were first grown in a 96-well assay system using DMEM with 10% fetal bovine serum (FBS), both purchased from Sigma Chemical Co, St. Louis, Mo. […] Serum-free DMEM was used as a control. Cells were seeded into a 96 well plate at a concentration of 9×10^3 cells in 100 μl of DMEM containing 10% fetal bovine serum (FBS, Sigma Chemical Co., St. Louis, Mo.). The plate was incubated for 48 hours at 37° C. in a humidified 5% CO2 atmosphere. After incubation, the medium was aspirated and the wells were rinsed twice with 100 μl of serum-free DMEM. […] In addition, 100 μl of vehicle (serum-free DMEM) was added to 2 wells as a control. The plate was incubated for 48 hours at 37° C. in a humidified, 5% CO2 atmosphere.
The assay was performed using the recommended 100 μl of supernatant from each well of the 96-well plate. Standard buffer and stop solutions were freshly prepared before running the assay. A pre-antibody coated 96 well plate (provided with the kit) was used to transfer the test samples and the control. The plate was mixed, sealed, and incubated for 1 hour at 37° C. All the wells were washed three times (300ul) with washing buffer after removing sample solutions. 100ul of antibody-peroxidase conjugate solution was added into the wells. The plate was mixed, sealed, and incubated for one hour at 37° C. Solutions were removed and the wells were washed 3 times with washing buffer. All the wells were completely emptied at the end of washing from any liquid. 100 μl of substrate solution (hydrogen peroxide and tetramethylbenzidine in a buffered solution) was added to each well, and the plate was incubated at room temperature for 15 minutes. 100 μl of stop solution (freshly prepared 1N H2SO4) was added to each well in the same order as substrate. The plate was gently mixed and absorbance was read at 450 nm. Statistical analyses of data were performed using a one-way ANOVA.

[2] = MMP-9, 20 mM cacodylate (pH 6.8)
[3] = MMP-2, 20 mM cacodylate (pH 6.8)

T1 sequence (P14780 107-707 limits assumed): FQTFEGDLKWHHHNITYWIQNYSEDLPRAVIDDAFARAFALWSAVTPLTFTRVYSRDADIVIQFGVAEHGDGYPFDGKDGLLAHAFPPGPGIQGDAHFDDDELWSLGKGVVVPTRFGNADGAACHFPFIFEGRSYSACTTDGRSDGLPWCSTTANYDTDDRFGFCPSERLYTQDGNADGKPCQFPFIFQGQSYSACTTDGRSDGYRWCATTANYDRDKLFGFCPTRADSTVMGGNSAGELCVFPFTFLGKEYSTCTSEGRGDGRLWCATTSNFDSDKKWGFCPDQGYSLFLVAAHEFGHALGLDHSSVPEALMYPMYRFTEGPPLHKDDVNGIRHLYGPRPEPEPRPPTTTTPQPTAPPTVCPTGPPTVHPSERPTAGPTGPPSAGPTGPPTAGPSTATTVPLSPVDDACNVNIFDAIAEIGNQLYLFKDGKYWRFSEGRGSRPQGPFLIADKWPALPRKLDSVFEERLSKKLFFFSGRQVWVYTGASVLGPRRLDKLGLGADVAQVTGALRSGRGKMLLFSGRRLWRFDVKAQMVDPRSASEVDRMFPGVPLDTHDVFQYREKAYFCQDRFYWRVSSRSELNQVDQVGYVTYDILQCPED
Chain of pro-MMP-9 (P14780 20-707): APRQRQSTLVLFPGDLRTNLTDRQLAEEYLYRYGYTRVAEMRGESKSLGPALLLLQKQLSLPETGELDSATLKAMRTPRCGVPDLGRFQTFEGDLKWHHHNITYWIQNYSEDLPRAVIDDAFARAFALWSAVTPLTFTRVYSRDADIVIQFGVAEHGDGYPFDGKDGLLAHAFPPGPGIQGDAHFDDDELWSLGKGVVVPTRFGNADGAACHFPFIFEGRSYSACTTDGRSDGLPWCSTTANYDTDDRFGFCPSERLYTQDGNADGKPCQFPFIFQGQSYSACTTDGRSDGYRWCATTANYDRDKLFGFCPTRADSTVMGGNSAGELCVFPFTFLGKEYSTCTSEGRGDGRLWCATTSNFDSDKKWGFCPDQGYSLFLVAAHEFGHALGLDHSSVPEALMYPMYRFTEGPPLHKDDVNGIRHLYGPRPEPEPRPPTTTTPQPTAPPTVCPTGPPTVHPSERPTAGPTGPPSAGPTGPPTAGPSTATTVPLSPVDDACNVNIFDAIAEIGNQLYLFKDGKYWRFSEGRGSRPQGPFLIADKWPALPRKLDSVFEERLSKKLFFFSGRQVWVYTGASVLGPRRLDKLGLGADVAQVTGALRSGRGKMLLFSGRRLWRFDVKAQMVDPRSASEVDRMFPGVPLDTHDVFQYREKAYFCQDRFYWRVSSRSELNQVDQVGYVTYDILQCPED

Question: What does the source list for `CC(C)[C@H](NC(=O)[C@H](CC(=O)O)NC(=O)[C@@H]1CCCN1C(=O)[C@H](CC(N)=O)NC(=O)CNC(=O)[C@H](CS)NC(=O)[C@H](CCCNC(=N)N)NC(=O)[C@@H]1CCCN1)C(=O)N[C@@H](C)C(=O)N[C@@H](CC(N)=O)C(=O)N[C@@H](Cc1ccc(O)cc1)C(=O)N[C@@H](CC(N)=O)C(=O)N[C@@H](Cc1ccccc1)C(=O)N[C@@H](Cc1ccccc1)C(=O)N1CCC[C@H]1C(=O)N[C@@H](CCCNC(=N)N)C(=O)N[C@@H](CCCCN)C(=O)N1CCC[C@H]1C(=O)N[C@@H](CCCCN)C(=O)O` [Peptide 19-mer]?
Answer: inhibition of conversion of pro-MMP-9 into prodomain and active enzyme (splicing) (pro-MMP-9): prevents the activation; also recorded: inhibited in a dose dependent manner; Stoichiometry (MMP-9; MMP-9 20 μM, peptide 1 mM, 20 mM cacodylate (pH 6.8)): 0.975 ± 0.02; ΔH (MMP-9; [2]): -26.1 ± 1.45 kcal/mol; ΔS (MMP-9; [2]): −11.6 ± 2.2 cal mol^−1 K^−1; Stoichiometry (MMP-2; MMP-2 20 μM, 19-mer 1 mM, 20 mM cacodylate (pH 6.8)): 0.99 ± 0.03; ΔH (MMP-2; [3]): -15.4 ± 2.05 kcal/mol; ΔS (MMP-2; [3]): −21.1 ± 1.8 cal mol^−1 K^−1; Mean (fibronectin EIA, absorbance at 450 nm) ([1]; 1×10^−4 M): 0.4045; Median (fibronectin EIA, absorbance at 450 nm) ([1]; 1×10^−4 M): 0.4045; Mean (fibronectin EIA, absorbance at 450 nm) ([1]; 1×10^−5 M): 0.2400; Median (fibronectin EIA, absorbance at 450 nm) ([1]; 1×10^−5 M): 0.2400; Mean (fibronectin EIA, absorbance at 450 nm) ([1]; 1×10^−6 M): 0.1895; Median (fibronectin EIA, absorbance at 450 nm) ([1]; 1×10^−6 M): 0.1895; effect on fibronectin stimulation compared with control and 10^−6 M ([1]; 10^−4 M): more than doubled; amount of fibronectin versus control ([1]; all concentrations tested (1×10^−4, 1×10^−5, 1×10^−6 M)): increased the amount of fibronectin present
